Assay in all cases: inhibition of tumour cell growth, NCI panel, 48 h
Test [1] deals with ACHN.
Test [2] has as its system BT-549.
In test [3] the test system is HOP-92.
The subject of test [4] is IGROV-1.
In test [5] the test system is M14.
The test system of test [6] is MOLT-4.
In test [7] the test system is OVCAR-4.
Test [8] has as its system OVCAR-8.
For test [9], the system named is SK-MEL-28.
For test [10], the system named is SK-MEL-2.
The test system of test [11] is SN12C.
Test [12] concerns SW-620.
Test [13] concerns U-251.
For test [14], the system named is UACC-62.
Test [15] has as its system HCC 2998.
The subject of test [16] is MDA-N.
Test [17] relates to NCI-H226.
The test system of test [18] is RXF 393.
For test [19], the system named is T47D.

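Tested at 5 concentrations; 48 h exposure; 96-well plates; endpoints linearly interpolated, else capped at highest concentration. GI50 is the concentration that inhibits growth by half.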 Activity calls are given as the source filed them. Cut-off read from the data, not from the text of the source: active = GI50 up to about 1.1 µM and inactive = higher.

For `COc1ccc(-c2nc3ncccn3c2-c2ccc(S(C)(=O)=O)cc2)cc1`, the GI50 is > 100 µM (inactive) in [1]; > 100 µM (inactive) in [2]; 14.1 µM (inactive) in test [3]; 53.8 µM (inactive) in test [4]; > 100 µM (inactive) in [5]; > 100 µM (inactive) in [6]. In addition, the GI50 in [7], in [8], in test [9], in test [10], in test [11] and in test [12] was > 100 µM (inactive) throughout. The GI50 is > 100 µM (inactive) in [13] and 53.6 µM (inactive) in [14].

As to `O=C(O)c1cc2ccccc2c(/N=N\c2cc(C(F)(F)F)ccc2Cl)c1O`, the GI50 in [1] is 46.5 µM (inactive); in test [15], > 100 µM (inactive); in test [3], 53.8 µM (inactive); in [4], 95.9 µM (inactive); in [5] it was > 100 µM (inactive); in test [16], > 100 µM (inactive). Further, the GI50 is 27.4 µM (inactive) in [6]; > 100 µM (inactive) in test [17]; 86.9 µM (inactive) in test [7]; 60.8 µM (inactive) in [8]; 35.2 µM (inactive) in [18]; 83 µM (inactive) in test [9]. For the same molecule, the GI50 is 25.4 µM (inactive) in [10]; 44.9 µM (inactive) in test [11]; > 100 µM (inactive) in test [12]; 48.8 µM (inactive) in [19]; 27.5 µM (inactive) in test [13].

For `OCC(O)COCn1cc(Cn2ncc3c(SCc4ccccc4)ncnc32)nn1` (centres undefined), the GI50 in test [1], in [2], in test [15], in test [3], in test [4] and in test [5] was > 100 µM (inactive) each time. Further, the GI50 in test [6], in test [17], in test [7], in [8], in [9] and in test [10] was > 100 µM (inactive) throughout. Further, the GI50 in test [11], in [12], in [19], in [13] and in [14] was > 100 µM (inactive) throughout.

Turning to `COc1cc(C(C)(C)C)c(OC(=O)/C=C/C(=O)O/C=C/[N+](=O)[O-])c(C(C)(C)C)c1`, the GI50 in test [1] is 30.5 µM (inactive); in test [15] it was > 100 µM (inactive); in test [3], > 100 µM (inactive); in test [4], 69.8 µM (inactive); in test [5] it was 21.1 µM (inactive); in [16], 44.7 µM (inactive). The GI50 in [6] is > 100 µM (inactive); in test [17] it was 28.1 µM (inactive); in test [8] it was 36.4 µM (inactive); in [18] it was 27.6 µM (inactive); in test [11] it was 41.3 µM (inactive); in test [12], 28.4 µM (inactive). In addition, the GI50 is 41.8 µM (inactive) in test [19], 47.1 µM (inactive) in [13] and 33.2 µM (inactive) in test [14].

`Cc1c2cc[n+](C)cc2c(C)c2c1[nH]c1ccc(Oc3ccccc3)cc12`: the GI50 in test [1] was 2.48 µM (inactive); in [15], 3.18 µM (inactive); in test [3] it was 0.935 µM (active); in test [4], 2.37 µM (inactive); in test [5], 4.37 µM (inactive); in test [6], 1.69 µM (inactive). The GI50 was 0.544 µM (active) in test [17]; 2.56 µM (inactive) in test [7]; 0.605 µM (active) in test [8]; 2.89 µM (inactive) in test [9]; 0.832 µM (active) in test [10]; 0.303 µM (active) in [11]. In addition, the GI50 in test [12] was 0.537 µM (active); in test [13], 0.236 µM (active); in [14], 1.43 µM (inactive).

For `[O-][S+](Nc1ccccc1)c1cccc(Cl)c1` (centres undefined), the GI50 in test [1] is 25.5 µM (inactive); in [15], 11.3 µM (inactive); in test [4] it was 46.3 µM (inactive); in test [5], > 100 µM (inactive); in test [16], > 100 µM (inactive); in test [6] it was 34.7 µM (inactive). Also, the GI50 in test [17] is > 100 µM (inactive); in [8], 77.1 µM (inactive); in test [18], 51.1 µM (inactive); in test [9] it was 68.5 µM (inactive); in test [11], > 100 µM (inactive); in test [12], > 100 µM (inactive). The GI50 in test [13] was 53.2 µM (inactive).

Take `O=c1c2ccccc2nc(N/N=C/c2ccc(Cl)cc2)n1-c1ccccc1`: the GI50 is > 100 µM (inactive) in [1]; > 100 µM (inactive) in [15]; 98.6 µM (inactive) in test [3]; > 100 µM (inactive) in [4]; > 100 µM (inactive) in test [5]; 50.8 µM (inactive) in [16]. Moreover, the GI50 is > 100 µM (inactive) in test [6]; > 100 µM (inactive) in test [17]; 21.1 µM (inactive) in test [7]; 77.1 µM (inactive) in [8]; 87.1 µM (inactive) in [18]; > 100 µM (inactive) in test [9]. Further, the GI50 in [10] was 17.5 µM (inactive); in test [11], > 100 µM (inactive); in test [12], > 100 µM (inactive); in [19], 82.6 µM (inactive); in test [13] it was 46.6 µM (inactive); in test [14], > 100 µM (inactive).

Consider `N=C(N)Nc1ccc(CC(N)C(=O)NCC(=O)C(CC(=O)O)c2ncc(NC(=O)C(F)(F)F)o2)cc1` (centres undefined), for which the GI50 in [1], in [2], in test [15], in [4], in [5] and in test [17] was > 25 µM (inactive) throughout. Further, the GI50 was > 25 µM (inactive) in test [7]; > 25 µM (inactive) in test [8]; > 25 µM (inactive) in test [18]; > 25 µM (inactive) in test [9]; > 25 µM (inactive) in test [10]; 9.27 µM (inactive) in test [11]. In addition, the GI50 in test [12], in test [19], in [13] and in test [14] was > 25 µM (inactive) throughout.

`CSCCOC(=O)C(=[N+]=[N-])c1ccc([N+](=O)[O-])cc1`: the GI50 in test [1], in test [15], in test [4], in test [5], in test [6] and in [17] was > 100 µM (inactive) throughout. Besides, the GI50 in test [7], in test [8], in test [18], in test [9], in test [10] and in [11] was > 100 µM (inactive) in each case. Also, the GI50 in [12] and in test [13] was > 100 µM (inactive) in each case.

Consider `c1ccc(NC2(c3nnnn3C3CCCCC3)CCNCC2)cc1`, for which the GI50 in [1] is 20.1 µM (inactive); in test [15] it was 11.7 µM (inactive); in test [3], 6.01 µM (inactive); in test [4], 32.7 µM (inactive); in test [5] it was 17.6 µM (inactive); in [6] it was 18.2 µM (inactive). In addition, the GI50 in [17] is 17.9 µM (inactive); in test [7], 49.8 µM (inactive); in test [8], 28.6 µM (inactive); in test [18], > 10 µM (inactive); in [9] it was 17.9 µM (inactive); in [11] it was 36.6 µM (inactive). In addition, the GI50 in test [12] was 22.2 µM (inactive); in [19] it was 23.1 µM (inactive); in test [13] it was 16.6 µM (inactive); in [14], 18.3 µM (inactive).

Turning to `CC/C=C/c1cc2c(cc1O)CCC1C2CC[C@@]2(C)C1CC[C@@H]2O` (some centres undefined), the GI50 in test [1] was 2.14 µM (inactive); in test [15], 14.7 µM (inactive); in test [3] it was 12 µM (inactive); in test [4], 4.37 µM (inactive); in test [5] it was 1.17 µM (inactive); in test [16] it was 0.199 µM (active). Moreover, the GI50 is 1.97 µM (inactive) in test [6]; 1.47 µM (inactive) in test [17]; 19.9 µM (inactive) in test [7]; 4.31 µM (inactive) in test [8]; 1.08 µM (active) in test [18]; 11.3 µM (inactive) in test [9]. Besides, the GI50 in [10] is 1.21 µM (inactive); in test [12] it was 1.12 µM (active); in test [19], 2.86 µM (inactive); in [13], 1.7 µM (inactive).

In the case of `Cc1nc2c(n1-c1ccc(Br)cc1)C(=O)c1ccccc1C2=O`, the GI50 is 9.06 µM (inactive) in [1]; 14 µM (inactive) in [15]; 27.2 µM (inactive) in test [3]; 21.2 µM (inactive) in [4]; 17.7 µM (inactive) in test [5]; 6.84 µM (inactive) in test [16]. Also, the GI50 is 0.989 µM (active) in [6]; 51.6 µM (inactive) in test [17]; 14.8 µM (inactive) in [7]; 6.52 µM (inactive) in [8]; 14.8 µM (inactive) in test [18]; 12.9 µM (inactive) in [9]. Moreover, the GI50 in [10] is 66.4 µM (inactive); in test [11] it was 4.76 µM (inactive); in test [12], 7.74 µM (inactive); in test [19] it was 19.3 µM (inactive); in test [13], 3.54 µM (inactive); in test [14] it was 2.82 µM (inactive).

The record behind these values is ChEMBL document CHEMBL1201862, “PubChem BioAssay data set” (2004).
